Measured values taken from PMC12314051, “Design, antiproliferative potency, and in silico studies of novel 5-methylfuran-3-yl)thio)-3-phenylquinazolin-4(3H)-one based derivatives as potential EGFR inhibitors” (Scientific Reports, 2025).
Like-named read-outs stand apart in the source and are kept apart here.

Assays:
WI-38 cells = test: MTT cytotoxicity assay, normal WI-38; format: cell-based; conditions: Homo sapiens
Description: . […]. Furthermore, the MTT assay was employed to examine the safety profiles of the cytotoxic activity against the normal human diploid cell line WI-38 (Table 1). […]. They could therefore be considered safe chemotherapeutic agents.
(§1) Following the published protocol[75]–[77], the cytotoxic effects of the newly synthesized quinazolinones 1–10 were assessed in vitro using the MTT test method on human liver HepG-2, breast MCF-7, colorectal HCT-116 cancer cell lines, and normal diploid cell line WI-38. There were further details in the supplemetary file.
(§2) The cell lines were obtained from Karolinska Center, Department of Oncology and Pathology, Karolinska Institute and Hospital, Stockholm, Sweden, as follows: human liver HepG-2, breast MCF-7, and colorectal HCT-116 cancer cell lines and human diploid cell line WI-38. Exponentially, cells were placed in 10^4 cells/ well for 24 h, and then fresh medium containing different concentrations of the tested sample. two-fold serial dilution of the tested sample was added using a multichannel pipette. Moreover, all cells were cultivated at 37 °C, 5% CO2 and 95% humidity. Also, incubation of control cells occurred at 37 °C. However, after incubation for 24 h different concentrations of the sample (100, 50, 25, 12.5, 6.25, 3.125, and 1.56 µM) were added, and continued the incubation for 48 h, then, add the crystal violet solution of 1% to each well for 0.5 h to examine viable cells. Rinse the wells using water until no stain. After that, add 30% glacial acetic acid to all wells with shaking plates on a Microplate reader (TECAN, Inc.) to measure the absorbance, using a test wavelength of 490 nm. Besides, compare the treated samples with the control cell. The cytotoxicity was estimated by IC50 in (μM), the concentration that inhibits 50% of growth of cancer cell.

HCT-116 cells = test: MTT cytotoxicity assay, HCT-116; format: cell-based; conditions: Homo sapiens
Description: as §1, §2

HepG-2 cells = test: MTT cytotoxicity assay, HepG-2; format: cell-based; conditions: Homo sapiens
Description: as §1, §2

[1] = system: HepG-2, HCT-116 and MCF-7 cell lines; test: MTT cytotoxicity, all screened cancer cell lines together (SAR summary); format: cell-based, human
Description: […]. In addition, replacement of acetyl group in 2 with pyrazoline moiety with free N-1 in 7 or bound to thiazole in 9, yielded weak activity.
as §1, §2

MCF-7 cells = test: MTT cytotoxicity assay, MCF-7; format: cell-based; conditions: Homo sapiens
Description: as §1, §2

VEGFR-2 = molecular target: T1, VEGFR-2 (Homo sapiens, UniProt P35968); test: In vitro VEGFR-2 inhibition assay (ELISA kit); format: biochemical; conditions: read-out: IC50 (mean ± SD)
T1 construct: purchased Ray Biotech
Description: Quinazolinone-based targets 1, 6b, 8a, and 10 were chosen for further evaluation of their in vitro inhibitory activity against EGFR and VEGFR-2 because of their exceptional cytotoxic outcomes, with the goal of clarifying their mode of action. […]. VEGFR-2 assay: the effect of the most promising cytotoxic compounds 1, 6b, 8a, and 10 was evaluated for their in vitro inhibitory activity against Human VEGFR-2 using ELISA kit according to manufacturer's instructions (Ray Biotech). This assay employs an antibody specific for human VEGFR-2 coated on a 96-well plate. Samples and standards were added to the wells and incubated over night at 4 °C with gentle shaking. The wells were washed and biotinylated antibody was added followed by incubation for one hour at room temperature. After washing away unbound biotinylated antibody, HRP conjugated streptavidin was pipetted to the wells and
incubated at room temperature for 45 min. The wells were then washed; TMB substrate solution was added and incubated for 30 min. The color developed was in proportion to the amount of VEGFR-2 bound. The Stop Solution was added and the intensity of the color was measured at 450 nm. Percent inhibition was calculated by the comparison of compounds treated to control incubations. […]

EGFR = molecular target: T2, EGFR (Homo sapiens, UniProt P00533); test: In vitro EGFR inhibition assay; format: biochemical; conditions: for IC50: EGFR, read-out: IC50 (mean ± SD)
T2 construct: purchased Abcam

[2] = normal WI-38, MTT assay, read-out: IC50 (mean ± SD)
[3] = HCT-116, MTT assay, read-out: IC50 (mean ± SD)
[4] = HepG2, HepG-2, MTT assay, read-out: IC50 (mean ± SD)
[5] = HepG-2, HCT-116 and MCF-7 cell lines
[6] = MCF7, MCF-7, MTT assay, read-out: IC50 (mean ± SD)

T1 sequence (P35968 20-1356): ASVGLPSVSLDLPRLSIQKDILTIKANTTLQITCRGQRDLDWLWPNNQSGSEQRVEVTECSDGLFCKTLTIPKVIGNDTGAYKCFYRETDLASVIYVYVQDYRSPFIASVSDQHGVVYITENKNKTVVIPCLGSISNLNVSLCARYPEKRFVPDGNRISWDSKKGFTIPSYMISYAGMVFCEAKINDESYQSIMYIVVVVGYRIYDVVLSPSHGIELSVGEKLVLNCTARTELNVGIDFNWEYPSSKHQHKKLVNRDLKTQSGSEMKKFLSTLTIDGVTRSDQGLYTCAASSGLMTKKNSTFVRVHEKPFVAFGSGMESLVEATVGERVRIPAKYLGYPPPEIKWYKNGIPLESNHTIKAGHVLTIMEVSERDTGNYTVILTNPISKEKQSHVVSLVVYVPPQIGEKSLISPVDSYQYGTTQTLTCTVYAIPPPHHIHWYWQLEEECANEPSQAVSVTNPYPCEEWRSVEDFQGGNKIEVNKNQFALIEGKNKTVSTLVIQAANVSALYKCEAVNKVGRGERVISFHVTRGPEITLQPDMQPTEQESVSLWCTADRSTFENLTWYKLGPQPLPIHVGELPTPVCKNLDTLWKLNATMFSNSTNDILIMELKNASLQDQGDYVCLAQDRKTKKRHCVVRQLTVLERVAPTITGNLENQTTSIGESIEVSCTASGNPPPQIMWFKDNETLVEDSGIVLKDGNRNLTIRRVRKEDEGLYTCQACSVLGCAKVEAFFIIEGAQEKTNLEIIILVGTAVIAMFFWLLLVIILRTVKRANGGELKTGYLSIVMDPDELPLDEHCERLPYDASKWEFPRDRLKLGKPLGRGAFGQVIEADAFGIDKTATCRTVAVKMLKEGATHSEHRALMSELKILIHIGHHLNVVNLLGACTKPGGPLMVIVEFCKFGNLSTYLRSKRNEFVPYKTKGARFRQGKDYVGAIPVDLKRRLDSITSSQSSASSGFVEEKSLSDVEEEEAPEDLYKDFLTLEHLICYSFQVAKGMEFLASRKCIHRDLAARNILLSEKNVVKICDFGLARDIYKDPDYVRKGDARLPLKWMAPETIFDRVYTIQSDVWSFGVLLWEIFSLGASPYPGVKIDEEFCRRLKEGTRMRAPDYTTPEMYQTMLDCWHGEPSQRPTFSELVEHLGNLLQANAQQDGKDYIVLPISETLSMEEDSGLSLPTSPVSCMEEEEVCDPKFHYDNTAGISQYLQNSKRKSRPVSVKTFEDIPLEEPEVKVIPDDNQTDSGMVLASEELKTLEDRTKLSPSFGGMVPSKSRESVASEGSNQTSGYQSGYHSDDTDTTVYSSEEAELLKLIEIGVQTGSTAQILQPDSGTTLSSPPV
T2 sequence (P00533 25-1210): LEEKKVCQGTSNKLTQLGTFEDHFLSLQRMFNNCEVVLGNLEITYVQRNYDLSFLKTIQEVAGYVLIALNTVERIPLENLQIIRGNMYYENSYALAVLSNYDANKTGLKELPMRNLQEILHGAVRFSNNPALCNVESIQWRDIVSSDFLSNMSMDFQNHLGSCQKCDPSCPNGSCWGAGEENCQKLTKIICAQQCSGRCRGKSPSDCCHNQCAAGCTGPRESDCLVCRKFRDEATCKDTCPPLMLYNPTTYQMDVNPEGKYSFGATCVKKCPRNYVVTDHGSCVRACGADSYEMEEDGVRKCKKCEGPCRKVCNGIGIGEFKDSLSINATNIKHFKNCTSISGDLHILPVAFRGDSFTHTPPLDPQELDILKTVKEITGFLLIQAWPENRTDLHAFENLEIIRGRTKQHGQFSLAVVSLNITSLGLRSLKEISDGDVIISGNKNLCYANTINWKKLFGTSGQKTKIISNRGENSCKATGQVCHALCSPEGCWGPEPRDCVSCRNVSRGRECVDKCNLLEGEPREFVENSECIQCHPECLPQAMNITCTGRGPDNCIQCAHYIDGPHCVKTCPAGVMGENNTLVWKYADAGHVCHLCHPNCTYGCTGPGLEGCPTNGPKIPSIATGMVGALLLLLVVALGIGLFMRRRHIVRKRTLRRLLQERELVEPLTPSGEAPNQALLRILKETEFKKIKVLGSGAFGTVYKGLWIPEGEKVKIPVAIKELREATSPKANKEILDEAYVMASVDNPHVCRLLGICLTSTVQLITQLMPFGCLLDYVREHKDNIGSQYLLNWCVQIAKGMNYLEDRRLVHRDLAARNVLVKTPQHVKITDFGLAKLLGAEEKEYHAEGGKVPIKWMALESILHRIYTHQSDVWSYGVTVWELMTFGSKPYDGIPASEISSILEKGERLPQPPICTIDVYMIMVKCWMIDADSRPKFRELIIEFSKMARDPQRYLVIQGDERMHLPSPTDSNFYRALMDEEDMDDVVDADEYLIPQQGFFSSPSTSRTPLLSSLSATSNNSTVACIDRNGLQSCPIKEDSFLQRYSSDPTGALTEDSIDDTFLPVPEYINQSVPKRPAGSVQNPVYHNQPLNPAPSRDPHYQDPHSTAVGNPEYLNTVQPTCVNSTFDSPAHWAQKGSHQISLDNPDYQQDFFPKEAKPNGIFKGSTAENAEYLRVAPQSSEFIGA

IC50 (VEGFR-2) [µM] | IC50 (EGFR) [µM] | SMILES | IC50 (WI-38 cells; [2]) [µM] | IC50 (HCT-116 cells; [3]) [µM] | IC50 (HepG-2 cells; [4]) [µM] | cytotoxic activity in words (SAR study) [1, 5] | IC50 (MCF-7 cells; [6]) [µM] | selectivity EGFR over VEGFR-2 (EGFR; EGFR versus VEGFR-2) | IC50 (WI-38 cells; WI-38, read-out: IC50 (mean ± SD)) [µM] | IC50 (HCT-116 cells; HCT-116, read-out: IC50 (mean ± SD)) [µM] | IC50 (HepG-2 cells; HepG2, read-out: IC50 (mean ± SD)) [µM] | IC50 (MCF-7 cells; MCF7, read-out: IC50 (mean ± SD)) [µM] | cytotoxic activity in words (SAR study) [1]
– | – | COc1ccc(-c2cc(-c3c(Sc4nc5ccccc5c(=O)n4-c4ccccc4)coc3C)ncc2C#N)cc1 [Compound 5, 4-(4-Methoxyphenyl)-6-{2-methyl-4-[(4-oxo-3-phenyl-3,4-dihydroquinazolin-2-yl)thio]furan-3-yl}nicotinonitrile] | 17.8 ± 1.4 | 66.3 ± 3.5 | 38.5 ± 2.3 | Weak activity | 50 ± 2.8 | – | – | – | – | – | –
46.2 ± 1.2 | 8.53 ± 0.25 | Cc1occ(Sc2nc3ccccc3c(=O)n2-c2ccccc2)c1C1=NN(C(N)=S)C(c2ccc(Cl)cc2)C1 (stereo not shown) [Compound 8a, 5-(4-Chlorophenyl)-3-{2-methyl-4-[(4-oxo-3-phenyl-3,4-dihydroquinazolin-2-yl)thio]furan-3-yl}-4,5-dihydro-1H-pyrazole-1-carbothioamide] | 63.2 ± 3.3 | 57.1 ± 3.3 | 9.68 ± 0.8 | Excellent activity | 8.29 ± 0.6 | – | – | – | – | – | –
– | – | Cc1occ(Sc2nc3ccccc3c(=O)n2-c2ccccc2)c1C1CC(c2ccc(F)cc2)Nc2ccccc2N1 (stereo not shown) [Compound 6a, 2-{{{4-[4-(4-Fluorophenyl)-2,3,4,5-tetrahydro-1H-benzo[b][1,4]diazepin-2-yl]-5-methylfuran-3-yl}thio}}-3-phenylquinazolin-4(3H)-one] | 85.1 ± 4.2 | 52.5 ± 3.1 | 35.8 ± 2.1 | Weak activity | 33.6 ± 2 | – | – | – | – | – | –
39.4 ± 1.35 | 0.51 ± 0.04 | Cc1occ(Sc2nc3ccccc3c(=O)n2-c2ccccc2)c1C1=NN(C(=S)N=Cc2ccc(C=O)s2)C(c2ccc(F)cc2)C1 (stereo not shown) [Compound 10, 5-(4-Fluorophenyl)-N-[(5-formylthiophen-2-yl)methylene]-3-(2-methyl-4-{[4-oxo-3-phenyl-3,4-dihydroquinazolin-2-yl)thio]furan-3-yl}-4,5-dihydro-1H-pyrazole-1-carbothioamide] | 35.2 ± 2.2 | 11.6 ± 0.9 | 8.71 ± 0.7 | Excellent activity | 6.49 ± 0.4 | substantially more selective for EGFR than VEGFR-2 | – | – | – | – | –
– | – | CCOC(=O)C1C(=O)C=C(c2c(Sc3nc4ccccc4c(=O)n3-c3ccccc3)coc2C)CC1c1ccc(F)cc1 (stereo not shown) [Compound 4, Ethyl 4′-fluoro-5-{2-methyl-4-[(4-oxo-3-phenyl-3,4-dihydroquinazolin-2-yl)thio]furan-3-yl}-3-oxo-1,2,3,6-tetrahydro-[1,1′-biphenyl]-2-carboxylate] | 44.9 ± 2.7 | 87.8 ± 4.3 | 64.9 ± 3.5 | Weak activity | 62.1 ± 3.5 | – | – | – | – | – | –
– | – | Cc1occ(Sc2nc3ccccc3c(=O)n2-c2ccccc2)c1C(=O)C=Cc1ccco1 [Compound 3d, 2-{{{4-[3-(Furan-2-yl)acryloyl]-5-methylfuran-3-yl}thio}}-3-phenylquinazolin-4(3H)-one] | > 100 | 25.9 ± 1.7 | 18.9 ± 1.4 | – | 16 ± 1.3 | – | – | – | – | – | –
– | – | Cc1occ(Sc2nc3ccccc3c(=O)n2-c2ccccc2)c1C(=O)C=Cc1ccc(F)cc1 [Compound 3b, 2-{{{4-[3-(4-Fluorophenyl)acryloyl]-5-methylfuran-3-yl}thio}}-3-phenylquinazolin-4(3H)-one] | 28.8 ± 1.9 | 83.3 ± 4.1 | 56 ± 3.2 | – | 71.1 ± 3.8 | – | – | – | – | – | –
– | – | Cc1occ(Sc2nc3ccccc3c(=O)n2-c2ccccc2)c1C1=NNC(c2ccc(Cl)cc2)C1 (stereo not shown) [Compound 7, 2-{{{4-[5-(4-Chlorophenyl)-4,5-dihydro-1H-pyrazol-3-yl]-5-methylfuran-3-yl}thio}}-3-phenylquinazolin-4(3H)-one] | > 100 | 48.9 ± 2.6 | 27.9 ± 1.9 | weak activity | 45.8 ± 2.5 | – | – | – | – | – | –
– | – | C#Cc1cccc(Nc2ncnc3cc(OCCOC)c(OCCOC)cc23)c1 [Erlotinib, reference compound] | – | – | – | – | – | – | 6.72 ± 0.5 | 5.23 ± 0.3 | 4.5 ± 0.2 | 4.17 ± 0.2 | –
– | – | CC(=O)c1c(Sc2nc3ccccc3c(=O)n2-c2ccccc2)coc1C [Compound 2, 2-[(4-Acetyl-5-methylfuran-3-yl)thio]-3-phenylquinazolin-4(3H)-one] | 36.9 ± 2.4 | 78.7 ± 3.7 | 47.8 ± 2.8 | – | 54.9 ± 3.2 | – | – | – | – | – | Weak activity
– | – | Cc1occ(Sc2nc3ccccc3c(=O)n2-c2ccccc2)c1C1=NN(C(N)=S)C(c2ccc(F)cc2)C1 (stereo not shown) [Compound 8b] | 26.9 ± 1.8 | 93.4 ± 4.7 | 81.5 ± 4.2 | Weak activity | 76.1 ± 3.9 | – | – | – | – | – | –
– | – | Cc1occ(Sc2nc3ccccc3c(=O)n2-c2ccccc2)c1C(=O)C=Cc1ccc(Cl)cc1 [Compound 3a, 2-{{{4-[3-(4-Chlorophenyl)acryloyl]-5-methylfuran-3-yl}thio}}-3-phenylquinazolin-4(3H)-one] | 68.7 ± 3.6 | 34.1 ± 2.1 | 21.8 ± 1.6 | – | 37.9 ± 2.2 | – | – | – | – | – | –
– | – | Cc1occ(Sc2nc3ccccc3c(=O)n2-c2ccccc2)c1C1=NN(c2nc(Cl)cs2)C(c2ccc(Cl)cc2)C1 (stereo not shown) [Compound 9, 2-{{{4-[5-(4-Chlorophenyl)-1-(4-chlorothiazol-2-yl)-4,5-dihydro-1H-pyrazol-3-yl]-5-methylfuran-3-yl}thio}}-3-phenylquinazolin-4(3H)-one] | 39.8 ± 2.4 | 74.7 ± 3.9 | 44 ± 2.5 | weak activity | 58 ± 3.4 | – | – | – | – | – | –
– | – | COc1ccc(C=CC(=O)c2c(Sc3nc4ccccc4c(=O)n3-c3ccccc3)coc2C)cc1 [Compound 3c, 2-{{{4-[3-(4-Methoxyphenyl)acryloyl]-5-methylfuran-3-yl}thio}}-3-phenylquinazolin-4(3H)-one] | 53.2 ± 2.9 | > 100 | – | – | 23.4 ± 1.6 | – | – | – | – | – | –

SMILES | IC50 (VEGFR-2) [µM] | IC50 (EGFR) [µM] | IC50 (WI-38 cells; [2]) [µM] | IC50 (HCT-116 cells; [3]) [µM] | IC50 (HepG-2 cells; [4]) [µM] | cytotoxic activity in words (SAR study) [1, 5] | IC50 (MCF-7 cells; [6]) [µM] | selectivity EGFR over VEGFR-2 (EGFR; EGFR versus VEGFR-2) | IC50 (WI-38 cells; WI-38, read-out: IC50 (mean ± SD)) [µM] | IC50 (HCT-116 cells; HCT-116, read-out: IC50 (mean ± SD)) [µM] | IC50 (HepG-2 cells; HepG2, read-out: IC50 (mean ± SD)) [µM] | IC50 (MCF-7 cells; MCF7, read-out: IC50 (mean ± SD)) [µM] | cytotoxic activity in words (SAR study) [1]
O=C(CCl)Sc1nc2ccccc2c(=O)n1-c1ccccc1 [Compound 1, S-(4-Oxo-3-phenyl-3,4-dihydroquinazolin-2-yl) 2-chloroethanethioate] | 70.2 ± 2.55 | 25.5 ± 1.2 | 75.4 ± 3.8 | 19.6 ± 1.4 | 13.2 ± 1.1 | – | 10.6 ± 0.9 | – | – | – | – | – | Moderate activity
